# Measured values: patent publication US6528535B2, “Bicyclic inhibitors of protein farnesyl transferase” (Warner-Lambert Company, priority 1997, dated 2003)
# Molecular target: T1, SF9 affinity purified rat FPT (Rattus norvegicus, UniProt Q02293+Q04631)
# T1 construct: made in house; host or cells: Sf9 insect cells
# Assay: PFT (farnesyl protein transferase) inhibitory activity, radiolabeled farnesyl pyrophosphate / biotinyl peptide bead assay
# Assay type: biochemical
# Conditions: Examples 56-74, parallel synthesis array: single test; values adjusted to account for the purity of the sample; read-out: FTase, IC50
# Method: The protein:farnesyl transferase (PFT) or farnesyl protein transferase (FPT) inhibitory activity of compounds of the present invention were assayed in HEPES buffer (pH 7.4) containing 5 mM potassium phosphate and 20 μM ZnCl2. The solution also contained 5 mM DTT (dithiothreitol), 5 mM MgCl2, and 0.1% PEG 8000. Assays were performed in 96 well plates (Wallec) and employed solutions composed of varying concentrations of a compound of the present invention in 10% DMSO (dimethylsulfoxide). Upon addition of both substrates, radiolabeled farnesyl pyrophosphate ([1^3H], specific activity 15-30 Ci/mmol, final concentration 134 nM) and (biotinyl)-Ahe-Thr-Lys-Cys-Val-Ile-Met ([3aS[3a alpha, 4 beta, 6a alpha]-hexahydro-2-oxo-1H-thieno[3,4-d]imidazole-5-pentanoic acid]-[7-aminoheptanoic acid]-Thr-Lys-Cys-Val-Ile-Met) (Ahe is 7-aminoheptanoic acid, Thr is threonine, Lys is lysine, Cys is cysteine, Val is valine, Ile is isoleucine, and Met is methionine) (final concentration 0.2 μM), the enzyme reaction was started by addition of SF9 affinity purified rat FPT. After incubation at 30° C. for 30 minutes, the reaction was terminated by diluting the reaction 2.5-fold with a stop buffer containing 1.5 M magnesium acetate, 0.2 M H3PO4, 0.5% BSA (bovine serum albumin), and strepavidin beads (Amersham) at a concentration of 1.3 mg/mL. After allowing the plate to settle for 30 minutes at room temperature, radioactivity was quantitated on a microbeta counter (Model 1450, Wallec). The assay was also carried out without 5 mM potassium phosphate.
row,IC50,SMILES
1,0.42 µM,"O=C1/C(=C/c2cccc(Cl)c2)CCc2cc(OCCn3ccnc3)ccc21 [Example 57, 2-[(E)-1-(3-Chlorophenyl)methylidene]-6-[2-(1H-1-imidazolyl)ethoxy]-1,2,3,4-tetrahydro-1-naphthalenone]"
2,0.17 µM,"O=C1/C(=C/c2ccc(Cl)cc2)CCc2cc(OCCn3ccnc3)ccc21 [Example 58, 2-[(E)-1-(4-Chlorophenyl)methylidene]-6-[2-(1H-1-imidazolyl)ethoxy]-1,2,3,4-tetrahydro-1-naphthalenone]"
3,0.21 µM,"O=C1/C(=C/c2ccc3c(c2)OCO3)CCc2cc(OCCn3ccnc3)ccc21 [Example 59, 2-[(E)-1-(1,3-Benzodioxol-5-yl)methylidene]-6-[2-(1H-1-imidazolyl)ethoxy]-1,2,3,4-tetrahydro-1-naphthalenone]"
4,0.18 µM,"O=C1/C(=C/c2ccc(F)cc2)CCc2cc(OCCn3ccnc3)ccc21 [Example 60, 2-[(E)-1-(4-Fluorophenyl)methylidene]-6-[2-(1H-1-imidazolyl)ethoxy]-1,2,3,4-tetrahydro-1-naphthalenone]"
5,0.57 µM,"O=C1/C(=C/c2cccc(Cl)c2Cl)CCc2cc(OCCn3ccnc3)ccc21 [Example 61, 2-[(E)-1-(2,3-Dichlorophenyl)methylidene]-6-[2-(1H-1-imidazolyl)ethoxy]-1,2,3,4-tetrahydro-1-naphthalenone]"
6,0.54 µM,"O=C1/C(=C/c2c(Cl)cccc2Cl)CCc2cc(OCCn3ccnc3)ccc21 [Example 62, 2-[(E)-1-(2,6-Dichlorophenyl)methylidene]-6-[2-(1H-1-imidazolyl)ethoxy]-1,2,3,4-tetrahydro-1-naphthalenone]"
7,0.89 µM,"O=C1/C(=C/c2ccc(Cl)c(Cl)c2)CCc2cc(OCCn3ccnc3)ccc21 [Example 63, 2-[(E)-1-(3,4-Dichlorophenyl)methylidene]-6-[2-(1H-1-imidazolyl)ethoxy]-1,2,3,4-tetrahydro-1-naphthalenone]"
8,0.57 µM,"O=C1/C(=C/c2cc(Cl)cc(Cl)c2)CCc2cc(OCCn3ccnc3)ccc21 [Example 64, 2-[(E)-1-(3,5-Dichlorophenyl)methylidene]-6-[2-(1H-1-imidazolyl)ethoxy]-1,2,3,4tetrahydro-1-naphthalenone]"
9,0.63 µM,COc1ccc(OC)c(/C=C2\CCc3cc(OCCn4ccnc4)ccc3C2=O)c1 [Example 65]
10,1.84 µM,"COc1cccc(/C=C2\CCc3cc(OCCn4ccnc4)ccc3C2=O)c1OC [Example 66, 2-[(E)-1-(2,3-Dimethoxyphenyl)methylidene]-6-[2-(1H-1-imidazolyl)ethoxy]-1,2,3,4-tetrahydro-1-naphthalenone]"
11,0.71 µM,"O=C1/C(=C/c2ccccc2C(F)(F)F)CCc2cc(OCCn3ccnc3)ccc21 [Example 67, 6-[2-(1H-1-Imidazolyl)ethoxy]-2-(E)-1-[2-(trifluoromethyl)phenyl]methylidene-1,2,3,4-tetrahydro-1-naphthalenone]"
12,0.59 µM,"COc1cc(OC)c(/C=C2\CCc3cc(OCCn4ccnc4)ccc3C2=O)c(OC)c1 [Example 68, 6-[2-(1H-1-Imidazolyl)ethoxy]-2-[(E)-1-(2,4,6-trimethoxyphenyl)methylidene]-1,2,3,4-tetrahydro-1-naphthalenone]"
13,1.3 µM,"COc1ccc(/C=C2\CCc3cc(OCCn4ccnc4)ccc3C2=O)c(OC)c1OC [Example 69, 6-[2-(1H-1-Imidazolyl)ethoxy]-2-[(E)-1-(2,3,4-trimethoxyphenyl)methylidene]-1,2,3,4-tetrahydro-1-naphthalenone]"
14,0.32 µM,"O=C1/C(=C/c2ccc(I)cc2)CCc2cc(OCCn3ccnc3)ccc21 [Example 70, 6-[2-(1H-1-Imidazolyl)ethoxy]-2-[(E)-1-(4-iodophenyl)methylidene]-1,2,3,4-tetrahydro-1-naphthalenone]"
15,0.11 µM,CN(C)c1ccc(/C=C2\CCc3cc(OCCn4ccnc4)ccc3C2=O)cc1 [Example 71]
